From ChEMBL document CHEMBL5126521, “Analgesic Opioid Ligand Discovery Based on Nonmorphinan Scaffolds Derived from Natural Sources” (J Med Chem, 2022)
Square brackets hold non-standard residues; d marks the D form. Peptide text beside a SMILES is read from it.

Assays:
[1] = test system: Mus musculus; experiment: Antinociceptive activity in Swiss albino mouse assessed tail flick response in warm water administered icv; assay type: functional
[2] = molecular target: Delta-type opioid receptor (Rattus norvegicus, UniProt P33533); experiment: Inhibition of Wistar rat brain membrane DOP; assay type: cell membranes
Sequence of Delta-type opioid receptor (Rattus norvegicus, UniProt P33533) (P33533 whole entry): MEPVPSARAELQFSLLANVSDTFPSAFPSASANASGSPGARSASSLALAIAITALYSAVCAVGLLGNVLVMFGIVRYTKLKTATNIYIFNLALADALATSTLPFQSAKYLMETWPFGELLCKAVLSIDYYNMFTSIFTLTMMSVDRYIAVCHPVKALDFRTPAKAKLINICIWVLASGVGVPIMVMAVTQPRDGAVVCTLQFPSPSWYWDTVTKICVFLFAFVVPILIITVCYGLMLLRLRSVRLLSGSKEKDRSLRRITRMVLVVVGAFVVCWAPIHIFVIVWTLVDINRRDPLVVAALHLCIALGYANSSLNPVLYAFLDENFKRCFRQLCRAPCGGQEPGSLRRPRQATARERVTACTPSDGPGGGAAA

[3] = molecular target: T1, Mu-type opioid receptor (Homo sapiens, UniProt P35372); experiment: Agonist activity at human recombinant MOP expressed in CHO cells by calcium mobilization assay; assay type: functional, cell-based
T1 sequence (P35372 whole entry): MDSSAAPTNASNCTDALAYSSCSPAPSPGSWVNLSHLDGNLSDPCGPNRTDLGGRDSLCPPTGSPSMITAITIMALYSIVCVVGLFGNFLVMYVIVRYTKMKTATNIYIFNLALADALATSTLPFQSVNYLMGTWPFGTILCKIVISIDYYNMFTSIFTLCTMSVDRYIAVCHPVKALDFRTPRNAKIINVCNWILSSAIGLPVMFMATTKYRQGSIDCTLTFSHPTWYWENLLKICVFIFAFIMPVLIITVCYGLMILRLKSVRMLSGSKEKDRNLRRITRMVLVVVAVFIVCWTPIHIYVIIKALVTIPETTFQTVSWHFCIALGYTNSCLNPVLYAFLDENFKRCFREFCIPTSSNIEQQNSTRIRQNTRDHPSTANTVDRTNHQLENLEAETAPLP

[4] = molecular target: Mu-type opioid receptor (Rattus norvegicus, UniProt P33535); experiment: Inhibition of Wistar rat brain membrane MOP; assay type: cell membranes
Sequence of Mu-type opioid receptor (Rattus norvegicus, UniProt P33535) (P33535 whole entry): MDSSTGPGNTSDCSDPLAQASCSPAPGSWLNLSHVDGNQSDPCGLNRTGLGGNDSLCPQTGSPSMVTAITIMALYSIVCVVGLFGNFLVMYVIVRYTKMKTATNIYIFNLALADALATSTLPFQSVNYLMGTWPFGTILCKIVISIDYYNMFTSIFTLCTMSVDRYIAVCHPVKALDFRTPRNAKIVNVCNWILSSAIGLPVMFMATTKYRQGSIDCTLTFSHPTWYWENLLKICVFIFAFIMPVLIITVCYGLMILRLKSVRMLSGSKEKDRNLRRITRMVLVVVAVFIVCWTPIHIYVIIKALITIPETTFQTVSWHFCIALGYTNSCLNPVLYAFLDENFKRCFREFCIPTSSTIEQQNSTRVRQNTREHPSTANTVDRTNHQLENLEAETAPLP

[5] = Stability in rat brain homogenate assessed as compound remaining measured after 90 mins relative to control; assay type: ADME, tissue-based; conditions: read-out: Stability
[6] = molecular target: T1, Mu-type opioid receptor; experiment: Agonist activity at MOP (unknown origin) stably expressed in HEK293 cells assessed as forskolin stimulated cAMP accumulation incubated for 30 mins by radioactivity based scintillation counter analysis relative to control; assay type: functional, cell-based; conditions: filed as agonist
[7] = molecular target: T2, Delta-type opioid receptor (Homo sapiens, UniProt P41143); experiment: Displacement of [3H]DPDPE from DOP (unknown origin) stably expressed in HEK293 cells by liquid scintillation counter analysis; assay type: cell-based
T2 sequence (P41143 whole entry): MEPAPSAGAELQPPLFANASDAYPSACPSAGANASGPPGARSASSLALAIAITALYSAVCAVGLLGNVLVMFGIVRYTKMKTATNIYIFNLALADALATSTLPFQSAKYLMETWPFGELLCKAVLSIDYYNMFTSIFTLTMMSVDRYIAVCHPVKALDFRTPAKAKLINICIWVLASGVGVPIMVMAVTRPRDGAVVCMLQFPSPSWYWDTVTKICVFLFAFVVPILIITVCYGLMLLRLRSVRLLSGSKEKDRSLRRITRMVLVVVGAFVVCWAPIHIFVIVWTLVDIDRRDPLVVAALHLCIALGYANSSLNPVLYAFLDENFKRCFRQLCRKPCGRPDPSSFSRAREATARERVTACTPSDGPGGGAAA

[8] = molecular target: T1, Mu-type opioid receptor; experiment: Displacement of [3H]DAMGO from MOP (unknown origin) stably expressed in HEK293 cells by liquid scintillation counter analysis; assay type: cell-based
[9] = molecular target: T1, Mu-type opioid receptor; experiment: Agonist activity at MOP (unknown origin) stably expressed in HEK293 cells assessed as forskolin stimulated cAMP accumulation incubated for 30 mins by radioactivity based scintillation counter analysis; assay type: functional, cell-based
[10] = Stability in mouse serum assessed as half life; assay type: ADME, cell-free
[11] = Stability in mouse brain homogenate assessed as half life; assay type: ADME, tissue-based
[12] = molecular target: T1, Mu-type opioid receptor; experiment: Binding affinity to MOP (unknown origin)
[13] = test system: Rattus norvegicus; experiment: Antinociceptive activity in rat administered icv by tail pressure test relative to control; assay type: functional; design: concentration or dose not given beside the values
[14] = molecular target: T2, Delta-type opioid receptor; experiment: Binding affinity to DOP (unknown origin)
[15] = molecular target: Mu-type opioid receptor (Mus musculus, UniProt P42866); experiment: Antagonist activity at mouse vas deferns MOP; assay type: functional
Sequence of Mu-type opioid receptor (Mus musculus, UniProt P42866) (P42866 whole entry): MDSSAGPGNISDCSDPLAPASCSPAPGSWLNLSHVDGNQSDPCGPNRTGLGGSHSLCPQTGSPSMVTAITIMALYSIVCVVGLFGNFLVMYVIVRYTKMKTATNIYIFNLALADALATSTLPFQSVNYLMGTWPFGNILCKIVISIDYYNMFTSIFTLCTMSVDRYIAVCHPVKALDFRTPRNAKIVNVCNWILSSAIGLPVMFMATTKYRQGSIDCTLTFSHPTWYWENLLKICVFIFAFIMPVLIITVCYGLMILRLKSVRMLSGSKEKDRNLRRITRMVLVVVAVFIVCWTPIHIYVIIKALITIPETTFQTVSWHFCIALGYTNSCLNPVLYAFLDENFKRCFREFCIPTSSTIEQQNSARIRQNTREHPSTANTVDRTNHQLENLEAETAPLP

[16] = molecular target: Mu-type opioid receptor (Cavia porcellus, UniProt P97266); experiment: Antagonist activity at guinea pig ileum MOP; assay type: functional, tissue-based
Sequence of Mu-type opioid receptor (Cavia porcellus, UniProt P97266) (P97266 whole entry): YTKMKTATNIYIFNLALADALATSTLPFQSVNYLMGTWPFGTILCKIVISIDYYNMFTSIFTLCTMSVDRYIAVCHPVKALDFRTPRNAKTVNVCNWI

[17] = test system: Mus musculus; experiment: Antinociceptive activity in mouse administered icv; assay type: functional

For `Cc1ccc([C@@H]2NC(=O)[C@H](NC(=O)[C@@H](N)Cc3c(C)cc(O)cc3C)CCCCNC(=O)C[C@@H](C(N)=O)NC(=O)[C@H](c3ccccc3)NC2=O)cc1`, the ED50 [1] was 0.39 µg, the IC50 [2] was 156 nM and the EC50 [3] was 2.82 nM. For the same compound, the IC50 [4] was 1.43 nM and the remaining at […] [5] was 85%.

For `C=C(C(N)=O)[C@@H](NC(=O)[C@H](Cc1ccccc1)NC(=O)[C@@H](C)N(C)C(=O)[C@@H](N)Cc1ccc(O)cc1)c1ccccc1`, the Emax [6] was 80.4%, the Ki [7] was 4280 nM and the Ki [8] was 0.61 nM. For the same compound, the EC50 [9] was 4.39 nM.

`C=C(C(N)=O)[C@@H](NC(=O)[C@H](Cc1c[nH]c2ccccc12)NC(=O)[C@@H](C)N(C)C(=O)[C@@H](N)Cc1c(C)cc(O)cc1C)c1ccccc1` gave an Emax [6] of 98.1%, a half-life [10] of at least 5 h and a Ki [7] of 37.2 nM. The Ki [8] was 0.032 nM, the half-life [11] was at least 5 h and the EC50 [9] was 0.004 nM.

With `C=C(C(N)=O)[C@@H](NC(=O)[C@H](Cc1ccccc1)NC(=O)[C@@H](C)N(C)C(=O)[C@@H](N)Cc1ccc(O)cc1)c1ccco1` the Emax [6] was 87.7%, the Ki [7] was 4510 nM and the Ki [8] was 0.45 nM. The EC50 [9] was 4.11 nM.

Compound `NC(=O)[C@@H]1CC(=O)NCCCC[C@@H](NC(=O)[C@@H](N)Cc2ccc(O)cc2)C(=O)N[C@@H](c2ccccc2)C(=O)N[C@@H](c2ccc(C(F)(F)F)cc2)C(=O)N1` has a remaining at […] [5] of 93%.

In the case of `CN[C@H](C)C(=O)O`, the half-life [10] is reported as at least 5 h and the half-life [11] is reported as at least 5 h.

For `Cc1ccccc1[C@@H]1NC(=O)[C@H](c2ccccc2)NC(=O)[C@H](NC(=O)[C@@H](N)Cc2c(C)cc(O)cc2C)CCCCNC(=O)C[C@@H](C(N)=O)NC1=O`, the ED50 [1] was 0.05 µg, the IC50 [2] was 2.05 nM and the EC50 [3] was 5.62 nM. For the same compound, the IC50 [4] was 0.04 nM and the remaining at […] [5] was 85%.

For `NC(=O)[C@@H]1CC(=O)NCCCC[C@@H](NC(=O)[C@@H](N)Cc2ccc(O)cc2)C(=O)N[C@@H](c2ccc(C(F)(F)F)cc2)C(=O)N[C@@H](c2ccccc2)C(=O)N1`, the remaining at […] [5] was 93%.

`C[C@@H](NC(=O)[C@@H](N)Cc1ccc(O)cc1)C(=O)N[C@@H](Cc1ccccc1)C(=O)NCC(=O)N[C@@H](Cc1ccc(O)cc1)C(N)=O` (H-Y[dA]FGY-NH2) showed a Ki [12] of 0.98 nM, an Activity [13] of 27% and a Ki [14] of 88 nM. For the same compound, the IC50 [15] was 23.8 nM and the IC50 [16] was 2.9 nM.

In the case of `N=C(N)NCCC[C@@H](NC(=O)[C@@H](N)Cc1ccc(O)cc1)C(N)=O`, the IC50 [16] is reported as 44000 nM and the ED50 [17] is reported as 47000 pmol.

In the case of `C=C(C(N)=O)[C@@H](NC(=O)[C@H](Cc1ccccc1)NC(=O)[C@@H](C)N(C)C(=O)[C@@H](N)Cc1c(C)cc(O)cc1C)c1ccccc1`, the Emax [6] is reported as 95.1%, the half-life [10] is reported as at least 5 h and the Ki [7] is reported as 55.7 nM. It also gave a Ki [8] of 0.0511 nM, a half-life [11] of at least 5 h and an EC50 [9] of 0.000515 nM.

With `Cc1cc(O)cc(C)c1C[C@H](N)C(=O)N[C@@H]1CCCCNC(=O)C[C@@H](C(N)=O)NC(=O)[C@H](c2ccc(C(F)(F)F)cc2)NC(=O)[C@H](c2ccccc2)NC1=O` the remaining at […] [5] was 93%.

In the case of `NC(=O)[C@@H]1CC(=O)NCCCC[C@@H](NC(=O)[C@@H](N)Cc2ccc(O)cc2)C(=O)N[C@@H](c2ccc(F)cc2)C(=O)N[C@@H](c2ccccc2)C(=O)N1`, the remaining at […] [5] is reported as 93%.

In the case of `NC(=O)[C@@H]1CC(=O)NCCCC[C@@H](NC(=O)[C@@H](N)Cc2ccc(O)cc2)C(=O)N[C@@H](c2ccc(F)cc2F)C(=O)N[C@@H](c2ccccc2)C(=O)N1`, the remaining at […] [5] is reported as 93%.

`NC(=O)[C@@H]1CC(=O)NCCCC[C@@H](NC(=O)[C@@H](N)Cc2ccc(O)cc2)C(=O)N[C@@H](c2ccccc2)C(=O)N[C@@H](c2ccc(F)cc2)C(=O)N1` showed a remaining at […] [5] of 93%.

For `C[C@@H](NC(=O)[C@@H](N)Cc1ccc(O)cc1)C(=O)N[C@@H](Cc1ccccc1)C(=O)NCC(=O)O` (H-Y[dA]FG-OH), the Ki [12] was 11.9 nM, the Activity [13] was 25% and the Ki [14] was 1800 nM. It also gave an IC50 [15] of 263 nM and an IC50 [16] of 34.5 nM.

Compound `C=C(C(N)=O)[C@@H](NC(=O)[C@H](Cc1c[nH]c2ccccc12)NC(=O)[C@@H](C)N(C)C(=O)[C@@H](N)Cc1ccc(O)cc1)c1ccco1` has an Emax [6] of 90.6%, a Ki [7] of 3100 nM and a Ki [8] of 0.3 nM. The EC50 [9] was 1.45 nM.

Compound `C=C(C(=O)O)[C@@H](N)c1ccco1` has a half-life [10] of at least 5 h and a half-life [11] of at least 5 h.

Work on `Cc1cc(O)cc(C)c1C[C@H](N)C(=O)N[C@@H]1CCCCNC(=O)C[C@@H](C(N)=O)NC(=O)[C@H](c2ccc(F)cc2)NC(=O)[C@H](c2ccccc2)NC1=O` yielded a remaining at […] [5] of 93%.

Work on `C[C@@H](NC(=O)[C@@H](N)Cc1ccc(O)cc1)C(=O)N[C@@H](Cc1ccccc1)C(=O)NCC(=O)N[C@@H](Cc1ccc(O)cc1)C(=O)N1CCC[C@H]1C(N)=O` yielded a Ki [12] of 1.6 nM, an Activity [13] of 25% and a Ki [14] of 320 nM. It also gave an IC50 [15] of 43.2 nM and an IC50 [16] of 2.7 nM.
